Assay results: patent US11339130B1 (Blade Therapeutics, Inc., priority 2016, dated 2022)

Experiments:
Human Calpain 1/NS1 = molecular target: T1, Human Calpain 1/NS1 (Homo sapiens, UniProt P07384); experiment: Calpain inhibition continuous fluorescence (FRET) assay, Human Calpain 1/NS1; format: biochemical; conditions: read-out: Human Calpain 1/NS1 IC50
T1 sequence (P07384 1-714): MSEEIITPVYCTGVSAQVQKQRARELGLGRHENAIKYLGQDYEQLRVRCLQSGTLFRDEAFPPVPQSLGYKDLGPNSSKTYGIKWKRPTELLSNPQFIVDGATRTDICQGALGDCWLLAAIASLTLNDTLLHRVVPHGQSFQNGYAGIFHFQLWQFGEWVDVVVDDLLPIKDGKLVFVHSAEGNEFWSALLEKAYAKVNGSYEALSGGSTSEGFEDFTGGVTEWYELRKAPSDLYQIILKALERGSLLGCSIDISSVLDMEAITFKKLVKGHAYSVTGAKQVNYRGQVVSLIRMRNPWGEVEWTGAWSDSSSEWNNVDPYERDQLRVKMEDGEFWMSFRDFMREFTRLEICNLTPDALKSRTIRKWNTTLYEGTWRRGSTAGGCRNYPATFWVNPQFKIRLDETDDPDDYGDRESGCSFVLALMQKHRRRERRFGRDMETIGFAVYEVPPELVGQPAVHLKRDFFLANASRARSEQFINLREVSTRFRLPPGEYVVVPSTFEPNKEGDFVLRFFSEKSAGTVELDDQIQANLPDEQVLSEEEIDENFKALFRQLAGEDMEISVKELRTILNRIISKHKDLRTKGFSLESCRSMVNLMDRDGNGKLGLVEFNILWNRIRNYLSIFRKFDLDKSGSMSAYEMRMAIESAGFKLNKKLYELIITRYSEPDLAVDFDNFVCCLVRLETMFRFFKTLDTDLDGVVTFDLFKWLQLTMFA
T1 sequence (P04632 1-268 partner): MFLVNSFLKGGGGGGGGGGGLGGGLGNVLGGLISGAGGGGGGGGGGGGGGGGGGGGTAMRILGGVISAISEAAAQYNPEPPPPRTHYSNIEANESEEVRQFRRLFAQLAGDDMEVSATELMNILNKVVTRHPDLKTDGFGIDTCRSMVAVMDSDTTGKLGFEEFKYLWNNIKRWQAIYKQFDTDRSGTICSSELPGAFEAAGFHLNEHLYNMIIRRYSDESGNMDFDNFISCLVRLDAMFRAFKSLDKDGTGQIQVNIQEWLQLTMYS
Procedure, shortened: (§1)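 Fluorescence increase from the cleaved 5-FAM/QXL 520 substrate, read at 490/520 nm, gave activity. Calcium was supplied with the substrate to activate the enzyme in situ after a 25C enzyme-inhibitor preincubation, and IC50s were fit from initial slopes.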

Human Calpain 2/NS1 = molecular target: T2, Human Calpain 2/NS1 (Homo sapiens, UniProt P17655); experiment: Calpain inhibition continuous fluorescence (FRET) assay, Human Calpain 2/NS1; format: biochemical; conditions: read-out: Human Calpain 2/NS1 IC50
T2 sequence (P17655 1-700): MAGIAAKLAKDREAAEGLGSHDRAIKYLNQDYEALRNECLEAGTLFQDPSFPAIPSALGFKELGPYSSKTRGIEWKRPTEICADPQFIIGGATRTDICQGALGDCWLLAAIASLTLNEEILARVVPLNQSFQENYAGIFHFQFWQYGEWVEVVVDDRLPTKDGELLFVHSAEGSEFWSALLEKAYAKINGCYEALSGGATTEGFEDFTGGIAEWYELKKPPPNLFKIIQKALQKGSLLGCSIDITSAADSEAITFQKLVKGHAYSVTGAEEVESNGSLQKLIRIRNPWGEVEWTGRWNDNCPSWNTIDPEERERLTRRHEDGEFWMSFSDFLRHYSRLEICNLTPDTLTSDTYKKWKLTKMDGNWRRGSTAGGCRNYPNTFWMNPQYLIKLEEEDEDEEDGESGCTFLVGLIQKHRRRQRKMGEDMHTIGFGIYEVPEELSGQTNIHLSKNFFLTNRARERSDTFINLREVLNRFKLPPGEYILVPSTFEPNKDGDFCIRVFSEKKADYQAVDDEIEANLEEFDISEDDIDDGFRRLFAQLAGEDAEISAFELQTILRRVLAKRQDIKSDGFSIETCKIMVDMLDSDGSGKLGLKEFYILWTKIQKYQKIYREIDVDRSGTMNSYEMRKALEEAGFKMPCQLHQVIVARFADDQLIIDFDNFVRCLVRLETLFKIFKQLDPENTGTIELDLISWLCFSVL
T2 sequence (P04632 1-268 partner): T1 sequence (P04632 1-268 partner)
Procedure, shortened: as §1

Human Calpain 9/NS1 = molecular target: T3, Human Calpain 9/NS1 (Homo sapiens, UniProt O14815); experiment: Calpain inhibition continuous fluorescence (FRET) assay, Human Calpain 9/NS1; format: biochemical; conditions: read-out: Human Calpain 9/NS1 IC50
T3 sequence (O14815 1-690): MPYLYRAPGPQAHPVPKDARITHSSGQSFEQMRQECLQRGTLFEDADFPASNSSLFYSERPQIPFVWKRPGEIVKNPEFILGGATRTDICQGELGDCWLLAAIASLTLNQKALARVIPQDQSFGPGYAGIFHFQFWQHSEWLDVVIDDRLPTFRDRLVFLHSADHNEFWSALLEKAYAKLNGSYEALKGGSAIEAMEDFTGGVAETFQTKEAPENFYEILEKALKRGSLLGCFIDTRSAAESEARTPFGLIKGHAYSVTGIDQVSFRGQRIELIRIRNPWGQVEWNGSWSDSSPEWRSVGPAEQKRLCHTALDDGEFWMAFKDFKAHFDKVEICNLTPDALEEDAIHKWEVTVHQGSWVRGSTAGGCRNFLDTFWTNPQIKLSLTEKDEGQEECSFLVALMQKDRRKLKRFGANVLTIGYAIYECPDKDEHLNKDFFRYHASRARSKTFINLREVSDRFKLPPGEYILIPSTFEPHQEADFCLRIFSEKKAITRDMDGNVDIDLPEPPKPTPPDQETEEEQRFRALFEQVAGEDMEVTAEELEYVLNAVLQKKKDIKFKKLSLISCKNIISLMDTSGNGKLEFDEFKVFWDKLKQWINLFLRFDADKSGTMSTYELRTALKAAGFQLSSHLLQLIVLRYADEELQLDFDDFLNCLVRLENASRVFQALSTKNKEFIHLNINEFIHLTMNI
T3 sequence (P04632 1-268 partner): T1 sequence (P04632 1-268 partner)
Procedure, shortened: as §1

[1] = tested on: Calpain activity in SH-SY5Y cells (SBDP-150); experiment: SH-SY5Y Spectrin western blot assay (SBDP-150 breakdown product, A23187-induced); format: cell-based; conditions: Homo sapiens; SH-SY5Y cells, A23187-induced SBDP-150, western blot; read-out: SH-SY5Y Spectrin IC50
[2] = tested on: Calpain activity in SH-SY5Y cells; experiment: SH-SY5Y + AMC fluorescence assay (Suc-LLVY-AMC substrate); format: cell-based; conditions: read-out: SH-SY5Y + AMC IC50

IC50 (Human Calpain 1/NS1) | IC50 (Human Calpain 2/NS1) | IC50 (Human Calpain 9/NS1) | IC50 [1] | IC50 [2] | SMILES
< 3 µM | < 3 µM | < 3 µM | 10 to 25 µM | < 10 µM | NC(=O)C(=O)C(Cc1ccccc1)NC(=O)c1oc(C(F)(F)F)nc1-c1ccccc1F (centres unmarked) [Compound 358, N-(4-amino-3,4-dioxo-1-phenylbutan-2-yl)-4-(2-fluorophenyl)-2-(trifluoromethyl)oxazole-5-carboxamide]
> 10 µM | > 10 µM | > 10 µM | > 25 µM | > 25 µM | Cc1nc(-c2ccccc2)c(C(=O)N[C@@H](Cc2ccccc2)C(O)C(N)=O)o1 (stereo partly drawn) [Compound 360, N-((2S)-4-amino-3-hydroxy-4-oxo-1-phenylbutan-2-yl)-2-methyl-4-phenyloxazole-5-carboxamide]
< 3 µM | < 3 µM | < 3 µM | < 10 µM | < 10 µM | Cc1nc(-c2cccc(F)c2F)c(C(=O)NC(Cc2ccccc2)C(=O)C(N)=O)o1 (centres unmarked) [Compound 361, N-(4-amino-3,4-dioxo-1-phenylbutan-2-yl)-4-(2,3-difluorophenyl)-2-methyloxazole-5-carboxamide]
< 3 µM | < 3 µM | < 3 µM | < 10 µM | > 25 µM | C#CCOCc1ccc(-c2nsnc2C(=O)N[C@@H](Cc2ccccc2)C(=O)CF)cc1 [Compound 362, (S)—N-(4-fluoro-3-oxo-1-phenylbutan-2-yl)-4-(4-((prop-2-yn-1-yloxy)methyl)phenyl)-1,2,5-thiadiazole-3-carboxamide]
< 3 µM | < 3 µM | < 3 µM | < 10 µM | > 25 µM | NC(=O)C(=O)C(Cc1ccccc1)NC(=O)c1nsnc1-c1ccc(CNC(=O)c2ccc(F)cc2)cc1 (centres unmarked) [Compound 363, N-(4-amino-3,4-dioxo-1-phenylbutan-2-yl)-4-(4-((4-fluorobenzamido)methyl)phenyl)-1,2,5-thiadiazole-3-carboxamide]
< 3 µM | < 3 µM | < 3 µM | < 10 µM | < 10 µM | NC(=O)C(=O)C(Cc1ccccc1)NC(=O)c1nsnc1-c1cnccn1 (centres unmarked) [Compound 365, N-(4-amino-3,4-dioxo-1-phenylbutan-2-yl)-4-(pyrazin-2-yl)-1,2,5-thiadiazole-3-carboxamide]
< 3 µM | < 3 µM | < 3 µM | 10 to 25 µM | < 10 µM | NC(=O)C(=O)C(Cc1ccccc1)NC(=O)c1nsnc1Br (centres unmarked) [Compound 366, N-(4-amino-3,4-dioxo-1-phenylbutan-2-yl)-4-bromo-1,2,5-thiadiazole-3-carboxamide]
< 3 µM | < 3 µM | < 3 µM | < 10 µM | < 10 µM | NC(=O)C(=O)C(Cc1ccccc1)NC(=O)c1nsnc1-c1cccc2c1OCO2 (centres unmarked) [Compound 367, N-(4-amino-3,4-dioxo-1-phenylbutan-2-yl)-4-(benzo[d][1,3]dioxol-4-yl)-1,2,5-thiadiazole-3-carboxamide]
< 3 µM | < 3 µM | < 3 µM | 10 to 25 µM | > 25 µM | NC(=O)C(=O)C(Cc1ccccc1)NC(=O)c1nsnc1-c1cccc(COCc2ccccc2)c1 (centres unmarked) [Compound 370, N-(4-amino-3,4-dioxo-1-phenylbutan-2-yl)-4-(3-((benzyloxy)methyl)phenyl)-1,2,5-thiadiazole-3-carboxamide]
< 3 µM | < 3 µM | < 3 µM | < 10 µM | < 10 µM | NC(=O)C(=O)C(Cc1ccccc1)NC(=O)c1nsnc1-c1ccncc1 (centres unmarked) [Compound 371, N-(4-amino-3,4-dioxo-1-phenylbutan-2-yl)-4-(pyridin-4-yl)-1,2,5-thiadiazole-3-carboxamide]
< 3 µM | < 3 µM | < 3 µM | < 10 µM | < 10 µM | NC(=O)C(=O)C(Cc1ccccc1)NC(=O)c1nsnc1-c1cccc(F)c1F (centres unmarked) [Compound 372, N-(4-amino-3,4-dioxo-1-phenylbutan-2-yl)-4-(2,3-difluorophenyl)-1,2,5-thiadiazole-3-carboxamide]
< 3 µM | < 3 µM | < 3 µM | < 10 µM | < 10 µM | NC(=O)C(=O)C(Cc1ccccc1)NC(=O)c1nsnc1-c1ccccn1 (centres unmarked) [Compound 373, N-(4-amino-3,4-dioxo-1-phenylbutan-2-yl)-4-(pyridin-2-yl)-1,2,5-thiadiazole-3-carboxamide]
< 3 µM | < 3 µM | < 3 µM | < 10 µM | < 10 µM | NC(=O)C(=O)C(Cc1ccccc1)NC(=O)c1nsnc1-c1ccncn1 (centres unmarked) [Compound 374, N-(4-amino-3,4-dioxo-1-phenylbutan-2-yl)-4-(pyrimidin-4-yl)-1,2,5-thiadiazole-3-carboxamide]
< 3 µM | < 3 µM | < 3 µM | < 10 µM | < 10 µM | Cc1c(F)cccc1-c1nsnc1C(=O)NC(Cc1ccccc1)C(=O)C(N)=O (centres unmarked) [Compound 375, N-(4-amino-3,4-dioxo-1-phenylbutan-2-yl)-4-(3-fluoro-2-methylphenyl)-1,2,5-thiadiazole-3-carboxamide]
< 3 µM | < 3 µM | < 3 µM | < 10 µM | < 10 µM | NC(=O)C(=O)[C@H](Cc1ccccc1)NC(=O)c1nsnc1-c1ccccc1 [Compound 376, (S)—N-(4-amino-3,4-dioxo-1-phenylbutan-2-yl)-4-phenyl-1,2,5-thiadiazole-3-carboxamide]
< 3 µM | < 3 µM | < 3 µM | < 10 µM | 10 to 25 µM | NC(=O)C(=O)C(Cc1ccccc1)NC(=O)c1nsnc1-c1cccnc1 (centres unmarked) [Compound 377, N-(4-amino-3,4-dioxo-1-phenylbutan-2-yl)-4-(pyridin-3-yl)-1,2,5-thiadiazole-3-carboxamide]
